Test results reported in a compilation of properties of binary mixtures (doi:10.1021/acs.jced.8b00334).

Test: xn = mol fraction of the nth substance listed
Conditions: 101.3 kPa

CCC[N+]1(C)CCCCC1.O=S(=O)([N-]S(=O)(=O)C(F)(F)F)C(F)(F)F + CCC[N+](C)(C)C.O=S(=O)([N-]S(=O)(=O)C(F)(F)F)C(F)(F)F
x2 = 0
Conditions	viscosity [mPa·s]
283.15 K	397
288.15 K	277
308.15 K	87
318.15 K	55
323.15 K	45.1
328.15 K	37.3
333.15 K	31.4
348.15 K	19.8
353.15 K	17.3

CCCCC[N+](CC)(CC)CC.O=S(=O)([N-]S(=O)(=O)C(F)(F)F)C(F)(F)F + CCCCC[P+](CC)(CC)CC.O=S(=O)([N-]S(=O)(=O)C(F)(F)F)C(F)(F)F
viscosity [mPa·s]
Conditions	x1 = 0.2	x1 = 0.4	x1 = 0.6	x1 = 0.8	x1 = 1
283.15 K	229	266	316	386	479
288.15 K	168	192	225	270	329
293.15 K	126	143	165	194	233
298.15 K	97	108	–	144	169
303.15 K	75	84	94	109	–
308.15 K	60	66	74	84	96
313.15 K	48.3	53	58	66	75
318.15 K	–	42.9	47.2	53	60
323.15 K	32.7	35.4	38.6	42.9	48
328.15 K	27.4	29.5	32.1	35.4	39.3
333.15 K	23.2	24.9	26.9	29.5	32.6
338.15 K	19.9	21.2	–	24.9	27.4
343.15 K	17.2	18.3	19.6	21.3	–
348.15 K	15	15.9	16.9	–	19.9
353.15 K	–	13.9	14.8	15.9	–

CCC[N+](C)(C)C.O=S(=O)([N-]S(=O)(=O)C(F)(F)F)C(F)(F)F + CCC[N+]1(C)CCCCC1.O=S(=O)([N-]S(=O)(=O)C(F)(F)F)C(F)(F)F
viscosity [mPa·s]
Conditions	x1 = 0.2	x1 = 0.4	x1 = 0.6	x1 = 0.8	x1 = 1
283.15 K	340	292	–	–	179
288.15 K	240	209	180	149	133
293.15 K	175	154	–	–	102
298.15 K	131	117	103	88	79
303.15 K	101	90	80	70	63
308.15 K	78	–	–	56	51
313.15 K	62	57	51	–	42
318.15 K	51	–	–	38	35
323.15 K	41.5	38.4	35.2	31.8	29.5
328.15 K	34.6	32.1	29.6	27	25.2
333.15 K	29.1	27.2	25.3	23.2	21.7
338.15 K	24.8	23.3	21.7	20	18.8
343.15 K	21.4	–	18.9	–	16.5
348.15 K	18.6	17.6	16.5	–	–
353.15 K	16.3	15.4	14.6	13.6	12.9

CCCCC[P+](CC)(CC)CC.O=S(=O)([N-]S(=O)(=O)C(F)(F)F)C(F)(F)F + CCCCC[N+](CC)(CC)CC.O=S(=O)([N-]S(=O)(=O)C(F)(F)F)C(F)(F)F
x2 = 0
Conditions	viscosity [mPa·s]
288.15 K	150
293.15 K	113
298.15 K	87
303.15 K	69
308.15 K	55
313.15 K	44.5
318.15 K	36.6
328.15 K	25.6
333.15 K	21.8
338.15 K	18.7
343.15 K	16.2
348.15 K	14.2
353.15 K	12.5

CCC[N+]1(C)CCCC1.O=S(=O)([N-]S(=O)(=O)C(F)(F)F)C(F)(F)F + CCC[N+](C)(C)C.O=S(=O)([N-]S(=O)(=O)C(F)(F)F)C(F)(F)F
x2 = 0
Conditions	viscosity [mPa·s]
283.15 K	126
288.15 K	97
293.15 K	76
303.15 K	50
308.15 K	41.1
313.15 K	34.4
318.15 K	29.2
323.15 K	25
328.15 K	21.6
333.15 K	18.8
338.15 K	16.6
343.15 K	14.7
348.15 K	13.1
353.15 K	11.7

CCC[N+](C)(C)C.O=S(=O)([N-]S(=O)(=O)C(F)(F)F)C(F)(F)F + CCC[N+]1(C)CCCC1.O=S(=O)([N-]S(=O)(=O)C(F)(F)F)C(F)(F)F
viscosity [mPa·s]
Conditions	x1 = 0.2	x1 = 0.4	x1 = 0.6	x1 = 0.8	x1 = 1
283.15 K	129	–	–	160	–
288.15 K	101	104	–	121	–
293.15 K	78	–	88	94	102
298.15 K	63	65	70	74	79
303.15 K	51	52	56	–	63
308.15 K	–	43.1	–	48.3	51
313.15 K	35.2	35.9	–	39.9	42
318.15 K	29.8	30.3	32.1	–	35
323.15 K	25.5	25.8	27.3	–	–
328.15 K	–	–	23.4	–	25.2
333.15 K	–	–	–	20.9	–
338.15 K	16.8	16.9	17.7	18.2	18.8
343.15 K	14.8	–	15.6	16	16.5
348.15 K	13.2	–	13.8	14.2	14.6
353.15 K	–	11.9	–	12.6	12.9
